Measurements published in patent US20100130432A1, “Non-Natural Amino Acids and Neurotensin Analogues Thereof” (priority 2005, published 2010).
“Also recorded” adds a separate entry of the source. Read-outs that look alike come from different tables or passages of the source. Non-standard residues stand in square brackets, D forms with d. Residues, ends and D or L forms follow the SMILES beside them. *: point of attachment. Tle = CC(C)(C)[C@H](N)C(=O)O; X1 = C[C@@H](CCCCCN)C(=O)*

Key:
NTR-2 [1] = target: T1, NTR-2 (Homo sapiens, UniProt O95665); experiment: Functional agonism: induction of cAMP and inositol phosphate production; format: cell-based
T1 sequence (O95665 whole entry, species assumed): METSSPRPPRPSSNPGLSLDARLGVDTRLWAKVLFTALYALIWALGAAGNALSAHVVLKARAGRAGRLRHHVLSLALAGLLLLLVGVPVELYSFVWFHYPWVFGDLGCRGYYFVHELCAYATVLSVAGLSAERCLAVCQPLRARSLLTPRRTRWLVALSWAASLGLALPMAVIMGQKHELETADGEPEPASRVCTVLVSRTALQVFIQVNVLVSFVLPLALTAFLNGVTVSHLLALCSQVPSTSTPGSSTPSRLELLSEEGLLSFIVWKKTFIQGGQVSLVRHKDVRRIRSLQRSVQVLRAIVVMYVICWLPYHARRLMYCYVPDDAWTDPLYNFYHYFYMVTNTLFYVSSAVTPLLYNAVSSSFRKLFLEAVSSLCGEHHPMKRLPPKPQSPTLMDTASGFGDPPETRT

[2] = tested on: adrenergic (alpha1, alpha 2, beta), dopamine, histamine (H1, H2, H3), muscarinic (central, peripheral), nicotinic, opioid (nonselective), orphanin, serotonin …; settings: 10^−9, 10^−7 10^−5 M
rats [3] = experiment: Maximum tolerated dose; settings: rat, in vivo
rats [4] = experiment: Hotplate assay; format: in vivo, rat
Excerpt: Animals. Experimentally naïve male Sprague-Dawley rats from Charles River Laboratories, Raleigh, N.C. (230-260 g) or Harlan, Prattville Ala. (240-280 g), were maintained 4 per cage in animal quarters on a regular light/dark cycle (lights on 0600-1800) with ad libitum food and water for approximately 1 week before the experiment. The range of body weights on the 2 days of testing was 230-260 grams. The experiment was done on one day, with animals allowed to recover for three days before experiments are repeated.
Peptide Preparation. Test articles are prepared at the desired concentration in saline for either IP injection or gavage administration with N=6 for each dose and vehicle. Morphine (5 mg/kg) is used as a control for certain protocols. […] Apomorphine HCl (Sigma-Aldrich, St. Louis, Mo.) was dissolved in distilled water at a concentration of 5 mg/mL within 40 minutes of administration for injection at 1 mL/kg S.C. to give a dose of 5 mg/kg. When complete ED50s are determined, dosing range of the peptide will be 10, 3, 1, 0.3, 0.1 of the estimated ED50, covering two log orders of range.
The Hotplate Assay. The hotplate assay, a standard rat model for […] pain (see Le Bars et al., Pharmacol. Rev. 53: 597-652 (2001) and Chapman et al., Pain 22:1-31 (2002)), was performed as follows. A hotplate maintained at 52° C. to 53° C. was enclosed on four sides in a plexiglass chamber that extended 6 in. above the plate. Animals were placed on the plate, and the latency between the time a rat was placed on the surface and when it lifts or licks a back paw (indicative of pain sensation) was determined. Animals are removed immediately at the cutoff latency of 30 seconds. Assays are scored as the percent of maximal possible effect (% MPE) defined as 100%, which corresponds to the rats remaining on the hotplate for 30 seconds without responding. Thus, % MPE are calculated using the following equation: % MPE=[(post-drug latency−pre-drug latency)/(cut-off pre-drug latency)]×100%. N=6 or greater for all experiments.
Tmax indicates the time after dosing in which a maximum response was observed.

rats [5] = experiment: d-Amphetamine induced hyperlocomotion / locomotor activity chambers; format: in vivo, rat
Excerpt: Sound- and light-attenuated locomotor cages are used to measure the ability of potential candidates to decrease d-amphetamine-induced hyperactivity.
d-Amphetamine induced hyperlocomotion. Experimentally I male Sprague-Dawley rats were housed as described above. Rats were handled for three days prior to testing to minimize experimenter induced hyperlocomotion on test day. For experiments, sound- and light-attenuated automated photocell beam activity chambers (AccuScan Instruments, Inc., Columbus, Ohio) were used to measure locomotion. Cages were connected to a VersaMax Analyzer (AccuScan) in conjunction with an IBM computer using VersaMax 1.80-0146 software (AccuScan) to record vertical and horizontal activity. Total activity values recorded were the sum of vertical and horizontal activity. […]
Rats were placed in the activity chambers for 30 minutes to habituate and establish baseline activity levels. Then, rats were removed and given an IP or oral dose of peptide (N=7) or saline (N=8) and returned to the chamber to establish the peptide's effect on spontaneous activity levels. About 30 minutes after administration, rats were removed and given an IP injection of d-amphetamine (1 mg/kg) or vehicle and returned to the chamber for a further 1 hr to assess the effect of the peptide on induced hyperlocomotion.
Chronic Testing Protocols.
Separate two-factor ANOVAs for DOSE X TIME were performed for each different time-phase of the assay. Phases for the IP dosing and oral dosing experiments consisted of habituation (time points 10-60), drug (time points 70-120), and amphetamine (time points 130-240).

NTR-1 [6] = target: T2, NTR-1 (Homo sapiens, UniProt P30989); experiment: Functional agonism: induction of cAMP and inositol phosphate production; format: cell-based
T2 sequence (P30989 whole entry, species assumed): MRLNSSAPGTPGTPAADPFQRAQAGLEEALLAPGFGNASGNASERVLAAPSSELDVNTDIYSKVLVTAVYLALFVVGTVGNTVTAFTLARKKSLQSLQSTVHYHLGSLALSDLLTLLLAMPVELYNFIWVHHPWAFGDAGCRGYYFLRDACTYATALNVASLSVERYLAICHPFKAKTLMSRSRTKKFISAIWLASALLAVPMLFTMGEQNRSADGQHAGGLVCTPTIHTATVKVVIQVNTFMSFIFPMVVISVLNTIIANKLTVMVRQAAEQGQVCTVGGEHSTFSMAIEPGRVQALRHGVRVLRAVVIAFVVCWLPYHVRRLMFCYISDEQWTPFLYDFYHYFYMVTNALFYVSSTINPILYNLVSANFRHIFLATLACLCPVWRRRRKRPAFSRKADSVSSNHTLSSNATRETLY

[7] = Plasma stability, quantitative MALDI-MS assay; format: in vitro ADME
[8] = 5 or 30 min incubation at 37° C.
[9] = tested on: L5178Y TK+/−mouse lymphoma cells; settings: initial data, with and without S9
in vivo = settings: rat
rats [10] = experiment: Catalepsy, horizontal bar test
Procedure: Cataleptic Analysis. […] To circumvent these potential confounding factors, tests are performed on an animal only once in a quiet, controlled environment.
Catalepsy Assessment. […] Rats were given an IP injection of peptide (5 mg/Kg), saline, or haloperidol (1 mg/kg). After 3 hours, catalepsy was measured using the horizontal bar test. Briefly, the front paws were placed directly on a horizontal bar 5 mm in diameter placed 7.5 cm above the cage floor. The rat was held in this position for 3 sec and then released. The time from release until the paws return to the cage floor was measured and recorded. A cut-off time of 30 sec was observed; this indicated a fully cataleptic animal as cataleptic animals are frozen to the bar. […] Measures were repeated every 30 min for 4 hr. Data are means±SEM (p<0.01).

[11] = intra-stomach
Procedure: These samples were used for the determination of plasma drug by LC/MS/MS for estimating pharmacokinetic parameters and segmental absorption. The bioavailability of intra-stomach, intra-duodenum, intra-jejunum, intra-colon administration relative to intravenous administration and gavage was calculated.

[12] = target: hERG (human ether-a-go-go related gene) channels (Homo sapiens, UniProt Q12809); settings: initial results
Chain of hERG (human ether-a-go-go related gene) channels (Q12809 whole entry): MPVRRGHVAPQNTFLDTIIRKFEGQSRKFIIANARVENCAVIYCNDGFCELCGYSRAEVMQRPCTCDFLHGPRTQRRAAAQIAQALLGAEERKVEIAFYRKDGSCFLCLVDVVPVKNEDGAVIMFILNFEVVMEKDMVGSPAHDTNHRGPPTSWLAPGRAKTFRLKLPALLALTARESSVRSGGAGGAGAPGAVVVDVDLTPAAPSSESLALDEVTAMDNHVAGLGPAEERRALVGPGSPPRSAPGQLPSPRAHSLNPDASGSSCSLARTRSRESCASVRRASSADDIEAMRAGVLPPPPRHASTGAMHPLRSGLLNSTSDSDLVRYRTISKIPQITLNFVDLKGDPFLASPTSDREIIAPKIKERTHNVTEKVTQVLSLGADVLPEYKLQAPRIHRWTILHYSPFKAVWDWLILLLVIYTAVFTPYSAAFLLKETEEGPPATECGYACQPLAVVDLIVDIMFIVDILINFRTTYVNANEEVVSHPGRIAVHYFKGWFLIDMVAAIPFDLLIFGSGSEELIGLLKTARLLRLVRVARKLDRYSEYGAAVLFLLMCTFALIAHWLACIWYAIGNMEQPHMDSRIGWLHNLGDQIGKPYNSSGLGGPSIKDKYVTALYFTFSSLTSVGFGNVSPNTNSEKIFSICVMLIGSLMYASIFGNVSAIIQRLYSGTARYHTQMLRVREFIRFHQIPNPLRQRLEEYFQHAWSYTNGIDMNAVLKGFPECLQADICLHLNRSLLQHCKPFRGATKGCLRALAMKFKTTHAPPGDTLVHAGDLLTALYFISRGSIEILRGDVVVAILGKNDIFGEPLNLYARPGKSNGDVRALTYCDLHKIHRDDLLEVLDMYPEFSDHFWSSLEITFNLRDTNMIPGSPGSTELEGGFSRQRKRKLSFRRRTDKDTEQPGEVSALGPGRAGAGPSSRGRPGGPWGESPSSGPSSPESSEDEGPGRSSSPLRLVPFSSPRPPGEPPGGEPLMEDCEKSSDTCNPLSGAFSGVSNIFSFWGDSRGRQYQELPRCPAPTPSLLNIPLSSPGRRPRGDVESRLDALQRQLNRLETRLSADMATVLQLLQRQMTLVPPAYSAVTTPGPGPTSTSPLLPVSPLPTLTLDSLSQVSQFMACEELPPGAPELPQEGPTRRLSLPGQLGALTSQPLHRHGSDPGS
Procedure: hERG Assay. The objective of the hERG study is to assess the effects of the test article on the rapidly activating inward rectifying potassium current (IKr) conducted by hERG (human ether-a-go-go related gene) channels stably expressed in a HEK293 cell line. The method used is as follows. HEK293 cells, stably transfected with hERG cDNA, were used in the study. All experiments were performed at near-physiological temperature (35±2° C.). A positive control (60 nM terfenadine) was applied to two cells (n 2). Cells were be transferred to the recording chamber and superfused with HB-PS solution. The recording chamber and bathing solution were maintained at a temperature of 35±2° C. using a combination of in-line solution pre-heater, chamber floor heater, and feedback temperature controller. Bath temperature were measured using a thermistor probe.
Patch pipettes were made from glass capillary tubing using a P-97 micropipette puller (Sutter Instruments, CA). A commercial patch clamp amplifier was used for whole cell recordings. Before digitization, current records were low-pass filtered at one-fifth of the sampling frequency.
Cells stably expressing hERG were held at −80 mV.

Brattleboro rats = settings: orally dosed
rats [13] = tested on: rats
Excerpt: Chronic Testing Protocols. […] Induced hypothermia was monitored and tested for significance as described above. […] The test protocol for day five was as described above.

NTR-2 [14] = target: T1, NTR-2; experiment: Competitive NTR binding versus radiolabeled NT[8-13]
NTR-1 [15] = target: T2, NTR-1; experiment: as above

Q: Which “Functional NTR-2 Agonist” value (NTR-2 [1]) does the source give for CC(C)C[C@H](NC(=O)[C@@H](NC(=O)[C@H](Cc1ccc(O)cc1)NC(=O)[C@@H]1CCCN1C(=O)[C@H](CCCNC(=N)N)NC(=O)[C@@H](C)CCCCCN)C(C)(C)C)C(=O)O [ABS201, hLys-Arg-Pro-Tyr-t-Leu-Leu] (X1-RPY[Tle]L-OH) here?
A: Yes

Q: What about the “displacement of the receptors' endogenous substrate” value [2] of the same compound?
A: No displacement

Q: And the “lower limit for the MTD” value (rats [3])?
A: ≥ 100 times the ED50

Q: What about the “analgesic activity (% MPE) compared with morphine” value (rats [4]; ABS201 5 mg/kg, Morphine 5 mg/kg) of the same compound?
A: comparable in extent and duration to morphine

Q: What about the “tolerance to the analgesic activity” value (rats [4]; dosed daily for five days) of the same compound?
A: do not become tolerant

Q: And the “MPE (I.P.)” value (rats [4]; hotplate, IP at 10 mg/kg)?
A: 100%

Q: What about the “Tmax (I.P.) of % MPE” value (rats [4]; hotplate, IP at 10 mg/kg) of the same compound?
A: 15-45

Q: What about the “MPE (oral)” value (rats [4]; hotplate, orally at 20 mg/kg) of the same compound?
A: 39%

Q: And the “Tmax (Oral) of % MPE” value (rats [4]; hotplate, orally at 20 mg/kg)?
A: 30

Q: What about the “ED50 inhibition of amphetamine-induced hyperlocomotion” value (rats [5]; IP) of the same compound?
A: about 1 mg/kg

Q: And the “effect of repeated daily dosing on attenuation of d-amphetamine induced hyperlocomotion” value (rats [5]; IP 5 mg/kg daily, 5 days)?
A: had no effect

Q: And the “spontaneous locomotor activity, drug phase” value (rats [5]; IP, all dose groups)?
A: responded significantly lower than saline during the drug phase

Q: And the “effect on d-amphetamine induced hyperactivity” value (rats [5]; IP, all doses)?
A: significantly reduced hyperlocomotion for all doses tested

Q: What about the “spontaneous locomotor activity, drug phase” value (rats [5]; oral 10, 20, 30 mg/kg) of the same compound?
A: only the 10 and 30 mg/kg doses reduced spontaneous locomotor activity

Q: And the “effect on d-amphetamine induced hyperlocomotion” value (rats [5]; oral 10-30 mg/kg, time points 140-180)?
A: reduced locomotor activity

Q: And the “Functional NTR-1 Agonist” value (NTR-1 [6])?
A: Yes

Q: What about the half-life [7] of the same compound?
A: > 167 h

Q: And the “binding to plasma proteins” value [8]?
A: little or no binding

Q: And the “Toxicity, dose without toxicity” value (single acute dose I.P.)?
A: (>100 x ED50)

Q: And the Toxicity (single acute dose at 100x ED50 I.P.)?
A: No

Q: What about the “mouse lymphoma study result” value [9] of the same compound?
A: inactive

Q: And the MTD at 48 hr (in vivo; iv)?
A: ≥ 100 mg/kg

Q: And the MTD at 48 hr (in vivo; po)?
A: ≥ 500 mg/kg

Q: What about the catalepsy (rats [10]; IP 5 mg/kg, 5 mg/kg) of the same compound?
A: does not induce catalepsy; also recorded: does not induce a cataleptic state

Q: And the catalepsy (rats [10]; Table 11)?
A: No

Q: And the “uptake in the stomach” value [11]?
A: Virtually no ABS201 is taken up in the stomach

Q: What about the hERG study result [12] of the same compound?
A: inactive

Q: And the “reversal of PPI deficit” value (Brattleboro rats)?
A: reverses PPI

Q: What about the “dose tolerance” value (rats [13]; 10x ED50 administered daily over 5 days) of the same compound?
A: No

Q: What about the dose tolerance (rats [13]; I.P. 5 days at 5× the ED50, hypothermia and amphetamine-induced locomotion) of the same compound?
A: not observed

Q: What about the antinociception (rats [13]; summary of behavioral effects) of the same compound?
A: not antinociceptive

Q: And the NTR-2 affinity (NTR-2 [14])?
A: sub-micromolar

Q: What about the EC50 (NTR-1 [15]) of the same compound?
A: 3.92 ± 0.01 nM

Q: And the IC50 (NTR-1 [15])?
A: 11.2 ± 0.3 nM

Q: What about the “affinity for the target receptor (NTR1)” value (NTR-1 [15]) of the same compound?
A: nM affinity

Q: And the “binds less effectively than its parent” value (NTR-1 [15])?
A: 50 fold
